ChEMBL document CHEMBL1201862, “PubChem BioAssay data set” (2004)
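Method: 48-hour compound exposure of cells in 96-well plates, five concentrations, linear interpolation of endpoints. The concentration for 50% growth inhibition is given as GI50.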 The source made the active and inactive calls. No stated cut-off is given here; in the data, active = GI50 up to about 1.1 µM and inactive = higher.

Experiments:
Experiment in all cases: DTP human tumour cell line panel, 48 h
UACC-257 = tested on: UACC-257
IGROV-1 = tested on: IGROV-1
SK-MEL-5 = tested on: SK-MEL-5
NCI-H226 = tested on: NCI-H226
U-251 = tested on: U-251
HCT-116 = tested on: HCT-116
BT-549 = tested on: BT-549
K562 = tested on: K562
SW-620 = tested on: SW-620
Malme-3M = tested on: Malme-3M
A498 = tested on: A498
Hs-578T = tested on: Hs-578T
NCI-H23 = tested on: NCI-H23
MDA-MB-231 = tested on: MDA-MB-231
786-0 = tested on: 786-0
SNB-75 = tested on: SNB-75
COLO 205 = tested on: COLO 205
OVCAR-8 = tested on: OVCAR-8
KM12 = tested on: KM12
NCI-H522 = tested on: NCI-H522

Compound | GI50 (UACC-257) | GI50 (IGROV-1) | GI50 (SK-MEL-5) | GI50 (NCI-H226) | GI50 (U-251) | GI50 (HCT-116) | GI50 (BT-549) | GI50 (K562) | GI50 (SW-620) | GI50 (Malme-3M) | GI50 (A498) | GI50 (Hs-578T) | GI50 (NCI-H23) | GI50 (MDA-MB-231) | GI50 (786-0) | GI50 (SNB-75) | GI50 (COLO 205) | GI50 (OVCAR-8) | GI50 (KM12) | GI50 (NCI-H522)
c1ccc2c(c1)Oc1cccc3cccc-2c13 | > 100 µM (inactive) | > 100 µM (inactive) | > 100 µM (inactive) | > 100 µM (inactive) | > 100 µM (inactive) | > 100 µM (inactive) | > 100 µM (inactive) | > 100 µM (inactive) | > 100 µM (inactive) | > 100 µM (inactive) | > 100 µM (inactive) | > 100 µM (inactive) | > 100 µM (inactive) | > 100 µM (inactive) | > 100 µM (inactive) | > 100 µM (inactive) | > 100 µM (inactive) | > 100 µM (inactive) | > 100 µM (inactive) | > 100 µM (inactive)
COc1ccccc1C(=O)NCC1CCCN2CCCCC12 (stereo not given) | > 100 µM (inactive) | > 100 µM (inactive) | > 100 µM (inactive) | > 100 µM (inactive) | > 100 µM (inactive) | > 100 µM (inactive) | > 100 µM (inactive) | > 100 µM (inactive) | > 100 µM (inactive) | > 100 µM (inactive) | > 100 µM (inactive) | > 100 µM (inactive) | > 100 µM (inactive) | > 100 µM (inactive) | > 100 µM (inactive) | > 100 µM (inactive) | > 100 µM (inactive) | > 100 µM (inactive) | > 100 µM (inactive) | > 100 µM (inactive)
O=C1CC(=O)NC(NN2C(=O)CSC2C(=O)c2ccco2)=N1 (stereo not given) | > 100 µM (inactive) | > 100 µM (inactive) | > 100 µM (inactive) | > 100 µM (inactive) | > 100 µM (inactive) | > 100 µM (inactive) | > 100 µM (inactive) | > 100 µM (inactive) | > 100 µM (inactive) | > 100 µM (inactive) | > 100 µM (inactive) | > 100 µM (inactive) | > 100 µM (inactive) | > 100 µM (inactive) | > 100 µM (inactive) | 12.2 µM (inactive) | > 100 µM (inactive) | > 100 µM (inactive) | 3.05 µM (inactive) | > 100 µM (inactive)
COc1ccc(OC)c2c(=O)cc(-c3ccccc3)[nH]c12 | > 100 µM (inactive) | > 100 µM (inactive) | > 10 µM (inactive) | > 100 µM (inactive) | > 100 µM (inactive) | > 100 µM (inactive) | > 100 µM (inactive) | > 100 µM (inactive) | > 100 µM (inactive) | > 100 µM (inactive) | > 100 µM (inactive) | > 100 µM (inactive) | > 100 µM (inactive) | > 100 µM (inactive) | > 100 µM (inactive) | 93.3 µM (inactive) | > 100 µM (inactive) | > 100 µM (inactive) | > 100 µM (inactive) | 7.45 µM (inactive)
COC1(OC)C2(Cl)CCC1(Cl)C(OC(C)=O)C2 (stereo not given) | > 100 µM (inactive) | > 100 µM (inactive) | > 100 µM (inactive) | > 100 µM (inactive) | > 100 µM (inactive) | > 100 µM (inactive) | > 100 µM (inactive) | > 100 µM (inactive) | > 100 µM (inactive) | > 100 µM (inactive) | > 100 µM (inactive) | > 100 µM (inactive) | > 100 µM (inactive) | > 100 µM (inactive) | > 100 µM (inactive) | > 100 µM (inactive) | > 100 µM (inactive) | > 100 µM (inactive) | > 100 µM (inactive) | > 74.1 µM (inactive)
Oc1cccc2cc(Cl)cnc12 | 6.27 µM (inactive) | 7.16 µM (inactive) | 8.41 µM (inactive) | 27.4 µM (inactive) | 9.08 µM (inactive) | 4.46 µM (inactive) | 22.6 µM (inactive) | 3.87 µM (inactive) | 7.18 µM (inactive) | > 30.3 µM (inactive) | 23.8 µM (inactive) | 6.93 µM (inactive) | 6.12 µM (inactive) | 9.68 µM (inactive) | 23.6 µM (inactive) | 28.1 µM (inactive) | 31.4 µM (inactive) | 3.7 µM (inactive) | 14.8 µM (inactive) | 2.75 µM (inactive)
COC(=O)c1ccc(CCc2cc(O)ccc2O)cc1 | 13 µM (inactive) | 6.49 µM (inactive) | 10.2 µM (inactive) | 9.29 µM (inactive) | 7.46 µM (inactive) | 10.4 µM (inactive) | 5.7 µM (inactive) | 2.15 µM (inactive) | 6.27 µM (inactive) | 8.75 µM (inactive) | 37.6 µM (inactive) | 16.1 µM (inactive) | 13.6 µM (inactive) | 10.1 µM (inactive) | 5.47 µM (inactive) | 3.77 µM (inactive) | 23.9 µM (inactive) | 2.85 µM (inactive) | 5.52 µM (inactive) | 0.706 µM (active)
